Measured values from patent US9085795B2, “Methods for screening candidate agents for modulating prorenin and renin, assays for detecting prorenin and antibodies” (MOLECULAR INNOVATIONS, INC., priority 2009, dated 2015).
Several values for one entry are separate records, joined by “and”; a condition that tells them apart may be missing. Equal values may be shown once. Read-outs that look alike come from different tables or passages of the source. No end group written: not given here. *: point of attachment. Biotin = O=C1N[C@H]2[C@H](CS[C@H]2CCCCC(=O)*)N1

Legend:
renin = target: T1, renin (Homo sapiens, UniProt P00797); assay: Renin activity assay: cleavage of biotin-[…] by renin, detected with the antibody of the invention on avidin-coated plate; type: biochemical; settings: Renin at 10 ug/ml, aliskiren at 10X excess molar conc.
T1 construct: Renin is produced by cleavage of the 395 amino acid zymogen prorenin
T1 sequence (P00797 67-406): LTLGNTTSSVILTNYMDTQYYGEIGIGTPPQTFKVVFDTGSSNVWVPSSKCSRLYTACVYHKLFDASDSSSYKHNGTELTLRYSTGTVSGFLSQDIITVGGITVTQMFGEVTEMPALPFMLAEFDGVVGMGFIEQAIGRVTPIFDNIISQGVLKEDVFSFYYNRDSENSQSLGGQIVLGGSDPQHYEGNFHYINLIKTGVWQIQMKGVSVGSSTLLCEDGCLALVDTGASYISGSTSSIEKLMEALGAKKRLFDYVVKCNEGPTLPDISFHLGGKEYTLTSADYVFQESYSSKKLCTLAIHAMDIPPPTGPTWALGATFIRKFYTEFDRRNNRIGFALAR
Method: In accordance with the invention, renin was preincubated in the presence and absence of aliskiren, a known renin inhibitor for approximately 2 hours at 37° C. in 50 mM HEPES, 2 mM EDTA, 1% DMA, 0.5% BSA, pH 7.0. This mixture of renin +/−aliskiren was then contacted with biotin-[…] and incubated at 37° C. for approximately eighteen hours. The reaction mixture was then added to an avidin-coated microtiter plate and allowed to adhere thereto for 30 minutes at room temperature and then washed three times with wash buffer, containing 10 mM Tris, 150 mM NaCl, 0.1% BSA and 0.05% Tween. Then 100 μl of the antibody of the invention was added to each well of the microtiter plate and incubated for 30 minutes at room temperature and again washed with wash buffer. Then 100 μl of horse radish peroxidase conjugated goat anti-mouse subclass Fc was added to each well, incubated for 30 minutes at room temperature and washed with wash buffer. Then 100 μl of TMB ONE Solution™, available from Promega Corporation of Madison, Wis., was added to all wells, incubated for five minutes at room temperature. The reaction was stopped with 50 μl 1N H2SO4 and read at 450 nm.

[1] = test system: monoclonal antibody 4B5-E3; settings: peptides bound to avidin coated plates at 1 μg/ml, absorbance at 450 nm
Method: Cell supernatants were loaded on an IMMULON™ (Thermo Fisher Scientific Inc., Waltham, Mass.) strip plate coated with prorenin and blocked. […] Strips were then washed three times, and developed with TMB 1 (Kirkegaard & Perry Laboratories, Inc., Gaithersburg, Md.) substrate for 5 minutes; solution was quenched with 1N H2SO4. The IMMULON™ plate was read on a microtiter plate spectrophotometer with a set absorbance at 450 nm. Optical density (OD) measurements higher than 3.0 were considered positive clones.
These four peptides were bound to avidin coated plates at a concentration of 1 μg/ml and purified monoclonal 4B5-E3 binding was determined per the screening procedure described earlier.

Molecule: COCCCOc1cc(C[C@@H](C[C@H](N)[C@@H](O)C[C@H](C(=O)NCC(C)(C)C(N)=O)C(C)C)C(C)C)ccc1OC [aliskiren]
- inhibition of cleavage of the substrate peptide by renin (renin): inhibition of cleavage of the substrate peptide by renin
- signal read at 450 nM (uncleaved substrate peptide), renin + inhibitor (renin; preincubated approximately 2 hours at 37° C., substrate approximately eighteen hours): 3.363 and 3.481 and 3.596 and 3.824 and 3.754 and 3.497

Molecule: Biotin-ARLGPEW [Peptide 4.6]
- binding of peptide to monoclonal antibody 4B5-E3 [1]: does not bind monoclonal

Molecule: Biotin-ARLGPEWS [Peptide 4.5]
- binding of peptide to monoclonal antibody 4B5-E3 [1]: binds monoclonal
- binding of peptide to monoclonal antibody 4B5-E3 ([1]; listed as ARLGPEWS): bound to the monoclonal antibody

Molecule: Biotin-ARLGPEWSQ [Peptide 4.4]
- binding of peptide to monoclonal antibody 4B5-E3 [1]: binds monoclonal
- binding of peptide to monoclonal antibody 4B5-E3 ([1]; listed as ARLGPEWSQ): bound to the monoclonal antibody

Molecule: Biotin-RLGPEWSQPMKR [Peptide 4.2]
- binding of peptide to monoclonal antibody 4B5-E3 [1]: Biotin-RLGPEWSQPMKR (binds monoclonal)

Molecule: Biotin-LGPEWSQPMKR [Peptide 4.3]
- binding of peptide to monoclonal antibody 4B5-E3 [1]: Biotin-LGPEWSQPMKR (does not bind monoclonal)

Molecule: Biotin-ARLGPEWSQPMKR [Peptide 4.1]
- binding of peptide to monoclonal antibody 4B5-E3 [1]: Biotin-ARLGPEWSQPMKR (binds monoclonal)

Molecule: Biotin-GVDMARLGPEWSQPMKR [Peptide 4]
- binding of peptide to monoclonal antibody 4B5-E3 [1]: Biotin-GVDMARLGPEWSQPMKR (binds monoclonal)
- binding of peptide to monoclonal antibody 4B5-E3 ([1]; listed as peptide 4): positive result
